In patent US7572923B2, “Indirubin derivatives having anticancer property against human cancer cell line” (Anygen Co., Ltd., priority 2004, dated 2009):

Experiments:
[1] = tested on: human lung cancer cell line (A549); experiment: Inhibition of cancer cell line proliferation, A549; type: cell-based; details: 96 h, 3˜4 days incubation, absorbance at 515 nm
Description: (§1) For measuring the proliferation inhibition by indirubin compound, the method disclosed in K. Likhitwitayawuid et al. Journal. Nat. Prod. […] Followings are simple description of this method. The cancer cell line is diluted into 5×10^4 cfu/ml. Then, various concentrations of test compounds are added to 96 well microtiter plate containing diluted cell line. After incubating test plate for 3˜4 days at 37° C., the test plate is dried and Tris-base is added. Then, using ELISA plate detector, the absorbance at 515 nm is measured. IC50 is measured by non-linear regression method.

[2] = tested on: human colon cancer cell line (Col2); experiment: Inhibition of cancer cell line proliferation, Col2; type: cell-based; details: 96 h, 3˜4 days incubation, absorbance at 515 nm
Description: as §1

[3] = tested on: human stomach cancer cell line (SNU-638); experiment: Inhibition of cancer cell line proliferation, SNU-638; type: cell-based; details: 96 h, 3˜4 days incubation, absorbance at 515 nm
Description: as §1

[4] = tested on: human leukemia cell line (HL-60); experiment: Differentiation with low concentration 1,25-(OH)2D3 or ATRA, NBT reduction method; type: cell-based; details: for % of Differentiation, 1,25-(OH)2D3: 1 μM compound with 5 nM of 1,25-(OH)2D3; for % of Differentiation, all-trans RA: 1 μM compound with 50 nM of ATRA
Description: (§2) For measuring the differentiation inducing effect to acute bone merrow leukemia cell line (HL-60) by indirubin AGM compound, NBT (nitroblue tetrazolium) reduction reaction method is employed. The leukemia cell line is diluted into 2×10^5 cfu/ml. After treating 20 μM and 1 μM concentrations of test compounds, test plate is incubated for 3 days at 37° C. in 5% CO2 incubator. Incubated cells are washed with phosphate buffered saline (PBS). Then, they are further incubated in PBS solution containing 0.1% NBT and 200 ng/ml of PMA (phorbol 12-myristate 13-acetate) for 30 minutes at 37° C. Incubated cells are centrifuged and collected cells are washed with PBS solution. Using cell number counter, differentiated cells forming nitroblue formazan among total cells are counted.
Next, we test if AGM compound of present invention can synergically induce the differentiation of acute bone merrow leukemia cell line when it is treated with low concentration of 1,25-dihydroxyvitamin D3[1,25-(OH)2D3] or all-trans retinoic acid (ATRA) known as differentiation inducing agent. […] […] As a positive control, conventional differentiation inducing agent is used.

[5] = tested on: human abdominal cavity cancer cell line (HT 1080); experiment: Inhibition of cancer cell line proliferation, HT 1080; type: cell-based; details: HT-1080, 96 h, HT108, 3˜4 days incubation, absorbance at 515 nm
Description: as §1

[6] = tested on: leukemia cell line (HL-60); experiment: Differentiation inducing effect, NBT reduction method; type: cell-based, human; details: 3 days
Description: as §2, with “After treating 20 μM and 1 μM concentrations of test compounds, test plate is incubated for 3 days at 37° C. in 5% CO2 incubator.” left out

[7] = tested on: human leukemia cell line (HL-60); experiment: Inhibition of cancer cell line proliferation, HL-60; type: cell-based; details: HL-60, 96 h, HL60, 3˜4 days incubation, absorbance at 515 nm
Description: as §1

[8] = tested on: human cell line (HT 1080); experiment: Inhibition of cancer cell line proliferation, HT 1080; type: cell-based; details: HT-1080, 96 h, read-out: IC50 HT108
Description: as §1

Row | IC50 [1] | IC50 [2] | IC50 [3] | IC50 [5] | IC50 [7] | IC50 [8] | SMILES | % of Differentiation, 1,25-(OH)2D3 [4] | % of Differentiation, all-trans RA [4] | % of Differentiation ([6]; 1 μM compound) | % of Differentiation ([6]; 20 μM compound)
1 | 31 µM | > 100 µM | > 100 µM | 42.2 µM | – | – | O=C1Nc2ccccc2C1=C1Nc2ccccc2C1=O [AGM001, 1H,1′H-[2,3′] biindolylidene-3,2′-dione] | 28.36 ± 0.15% | 39.61 ± 1.25% | 7.76 ± 3.42% | 10.00 ± 0.27%
2 | > 100 µM | > 100 µM | > 100 µM | > 100 µM | > 100 µM | – | O=C1Nc2ccc([N+](=O)[O-])cc2C1=C1Nc2ccccc2C1=O [AGM009, 5′-nitro-1H,1′H-[2,3′] biindolylidene-3,2′-dione] | 48.51 ± 3.49% | 59.32 ± 1.54% | 19.94 ± 2.02% | 29.26 ± 1.59%
3 | > 100 µM | > 100 µM | > 100 µM | > 100 µM | > 100 µM | – | O=C1Nc2ccc(I)cc2C1=C1Nc2ccccc2C1=NO [AGM015, 5′-iodo-1H,1′H-[2,3′] biindolylidene-3,2′-dione 3-oxime] | 33.27 ± 0.75% | 67.41 ± 1.36% | 30.50 ± 4.97% | –
4 | 38.6 µM | 10.5 µM | 32.9 µM | 73.6 µM | 25 µM | – | O=C1Nc2ccccc2C1=C1Nc2ccc(Br)cc2C1=NO [AGM018, 5-bromo-1H,1′H-[2,3′] biindolylidene-3,2′-dione 3-oxime] | 36.52 ± 1.27% | 23.13 ± 0.71% | 8.69 ± 4.95% | –
5 | > 100 µM | > 100 µM | > 100 µM | > 100 µM | > 100 µM | – | O=C1Nc2ccccc2C1=C1Nc2ccc(Br)cc2C1=O [AGM021, 5-bromo-1H,1′H-[2,3′] biindolylidene-3,2′-dione] | 24.64 ± 0.65% | 28.23 ± 0.02% | 11.63 ± 3.48% | 9.64 ± 0.51%
6 | > 100 µM | > 100 µM | > 100 µM | – | > 100 µM | > 100 µM | O=C1Nc2ccc(Cl)cc2C1=C1Nc2ccccc2C1=O [AGM025, 5′-chloro-1H,1′H-[2,3′] biindolylidene-3,2′-dione] | 49.41 ± 0.08% | 48.39 ± 1.48% | 26.18 ± 0.59% | 14.40 ± 0.82%
7 | 9.13 µM | 24.6 µM | 10 µM | – | 13 µM | 5.07 µM | Nc1ccc2c(c1)C(=C1Nc3ccccc3C1=NO)C(=O)N2 [AGM031, 5′-amino-1H,1′H-[2,3′] biindolylidene-3,2′-dione-3-oxime] | – | – | – | –

Continued, molecule first:

Row | SMILES | IC50 [1] | IC50 [2] | IC50 [3] | IC50 [5] | IC50 [7] | IC50 [8] | % of Differentiation, 1,25-(OH)2D3 [4] | % of Differentiation, all-trans RA [4] | % of Differentiation ([6]; 1 μM compound) | % of Differentiation ([6]; 20 μM compound)
8 | O=C1Nc2ccccc2C1=C1Nc2ccccc2C1=NO [AGM002, 1H,1′H-[2,3′] biindolylidene-3,2′-dione 3-oxime] | 62 µM | > 100 µM | > 100 µM | 4.8 µM | – | – | 24.52 ± 2.67% | 37.78 ± 1.06% | 11.12 ± 0.31% | 6.78 ± 0.40%
9 | O=C1Nc2ccc(OC(F)(F)F)cc2C1=C1Nc2ccccc2C1=O [AGM003] | – | – | – | – | – | – | 22.04 ± 0.38% | 41.01 ± 1.26% | 6.27 ± 1.76% | 10.36 ± 0.29%
10 | O=C1Nc2ccc(OC(F)(F)F)cc2C1=C1Nc2ccccc2C1=NO [AGM004] | – | – | – | – | – | – | 26.36 ± 3.05% | 28.68 ± 0.23% | 22.81 ± 2.38% | –
11 | CC(=O)N1C(=C2C(=O)Nc3ccccc32)C(=O)c2ccccc21 [AGM006, 1-acetyl-1H,1′H-[2,3′] biindolylidene-3,2′-dione] | > 100 µM | > 100 µM | > 100 µM | > 100 µM | > 100 µM | – | 19.60 ± 0.56% | 42.81 ± 1.05% | 9.99 ± 1.47% | 10.49 ± 0.25%
12 | O=C1Nc2ccc(F)cc2C1=C1Nc2ccccc2C1=O [AGM010, 5′-fluoro-1H,1′H-[2,3′] biindolylidene-3,2′-dione] | 96.8 µM | > 100 µM | 40.3 µM | – | > 100 µM | > 100 µM | 78.44 ± 6.88% | 75.08 ± 6.80% | 7.53 ± 1.02% | 13.01 ± 0.14%
13 | Cc1ccc2c(c1)C(=C1Nc3ccccc3C1=NO)C(=O)N2 [AGM013, 5′-methyl-1H,1′H-[2,3′] biindolylidene-3,2′-dione 3-oxime] | 20.4 µM | > 100 µM | 17.6 µM | 36.7 µM | 65.4 µM | – | 35.49 ± 5.45% | 70.54 ± 2.17% | 26.22 ± 2.04% | –
14 | Cc1cc(C)c2c(c1)C(=C1Nc3ccccc3C1=NO)C(=O)N2 [AGM016, 5′,7′-dimethyl-1H,1′H-[2,3′] biindolylidene-3,2′-dione 3-oxime] | > 100 µM | > 100 µM | 90.6 µM | > 100 µM | > 100 µM | – | 27.24 ± 1.32% | 33.99 ± 0.47% | 3.07 ± 1.69% | 10.35 ± 0.62%
15 | Cc1cc(Cl)cc2c1NC(=O)C2=C1Nc2ccccc2C1=NO [AGM017, 5′-chloro-7′-methyl-1H,1′H-[2,3′] biindolylidene-3,2′-dione 3-oxime] | > 100 µM | > 100 µM | > 100 µM | – | > 100 µM | > 100 µM | 22.10 ± 0.90% | 43.17 ± 1.56% | 8.37 ± 0.45% | 2.62 ± 0.23%
16 | O=C1Nc2ccc(S(=O)(=O)[O-])cc2C1=C1Nc2ccccc2C1=O.[Na+] [AGM019, 3,2′-dioxo-1,3,1′,2′-tetrahydro-[2,3′] biindolylidene-5′-sodium sulfonate] | – | – | – | – | – | – | 27.66 ± 1.28% | 51.49 ± 0.13% | 9.36 ± 0.13% | 12.44 ± 1.66%
17 | O=C1Nc2ccc(S(=O)(=O)[O-])cc2C1=C1Nc2ccccc2C1=NO.[Na+] [AGM020, 3-hydroxyimino-2′-oxo-1,3,1′,2′-tetrahydro-[2,3′] biindolylidene-5′-sodium sulfonate] | – | – | – | – | – | – | 23.34 ± 0.65% | 34.50 ± 2.91% | 11.34 ± 2.32% | 23.86 ± 1.31%
18 | O=C1Nc2ccc([N+](=O)[O-])cc2C1=C1Nc2ccc(Br)cc2C1=O [AGM022] | – | – | – | – | – | – | 48.28 ± 0.36% | 51.20 ± 3.70% | 18.35 ± 0.02% | 22.89 ± 0.51%
19 | Cc1ccc2c(c1)C(=C1Nc3ccccc3C1=O)C(=O)N2 [AGM024, 5′-methyl-1H,1′H-[2,3′] biindolylidene-3,2′-dione] | > 100 µM | > 100 µM | > 100 µM | – | > 100 µM | > 100 µM | 41.66 ± 0.40% | 51.01 ± 0.88% | 24.89 ± 6.06% | 14.38 ± 0.42%
20 | O=C1Nc2ccccc2/C1=C1/Nc2ccccc2C1=O [Indirubin] | – | – | – | – | – | – | 26.39 ± 0.98% | 44.87 ± 2.54% | 15.28 ± 1.12% | 1.18 ± 0.18%
